{"source": "patent US10260097B2", "about": "“Method of using a gene expression profile to determine cancer responsiveness to an anti-angiogenic agent” (Almac Diagnostics Limited, priority 2011, dated 2019)", "origin": "cited, not measured here", "key": {"rectal cancer patients": {"system": "rectal cancer patients", "details": "rectal cancer patients receiving bevacizumab monotherapy"}, "most cancers": {"system": "most cancers", "details": "bevacizumab added to cytotoxic chemotherapy"}, "ovarian cancer patients": {"system": "ovarian cancer patients", "details": "ovarian cancer patients receiving bevacizumab monotherapy"}, "renal cancer patients": {"system": "renal cancer patients", "details": "renal cancer patients receiving bevacizumab monotherapy"}}}
{"substance": "bevacizumab", "values": [{"measurement": "patients showing partial regression", "setting": "rectal cancer patients", "value": 33, "unit": "%"}, {"measurement": "overall survival (OS) benefit", "setting": "most cancers", "value": "no overall survival (OS) benefit"}, {"measurement": "patients showing partial regression", "setting": "ovarian cancer patients", "value": 21, "unit": "%"}, {"measurement": "patients showing partial regression", "setting": "renal cancer patients", "value": 10, "unit": "%"}]}
